# Laboratory results reported in patent US20130109636A1, “TRI-AMINO RELEASING FULVATE” (priority 2011, published 2013).
# Experiments:
# Assay type in all cases: in vivo
# anti-inflammatory = settings: in all forms
# hypertension = settings: encapsulated
# wound healing = test: wound healing
# Excerpt: (§1) This acceleration of microcirculation has many positive benefits.
# [1] = vasodilatation / acceleration of microcirculation
# Excerpt: as §1
# prostate = settings: swollen prostate
# pain relief = settings: wounds such as burns and skin lesions
substance,measurement,setting,value
lithio-arginino-glycino-parabenzene-fulvate [Li-TAFA],reduction of inflammation and of resulting discomfort,anti-inflammatory,shown the ability to reduce inflammation and control the discomfort resulting from inflammation
same,reduction of hypertension,hypertension,demonstrated the ability to reduce hypertension
same,toxic side effects,hypertension,without toxic side effects
same,"healing of wounds, burns and chronic lesions","wound healing; lesions healed: 3rd degree radiation burns, squamous and basal cell carcinoma, psoriasis, venous stasis ulcers, decubitus ulcers, deep surgical wounding, herpes","exhibited the ability to aid and accelerate the healing of wounds, burns (of all degrees) and several types of chronic lesions"
same,scar formation,wound healing; radiation burns of the 3rd degree,complete suppression of scar formation
same,vasodilatation qualities / acceleration of microcirculation,[1]; used topically or internally,exhibited vasodilatation qualities
same,toxic side effects,[1]; used topically or internally to accelerate microcirculation,without toxic side effects
same,prostate size,prostate,demonstrated the ability to shrink a swollen prostate to normal size
same,pain relief,pain relief,"demonstrated substantial pain relief, without diminishing topical sensation"
